Source: the kinase profiling compilation of Christmann-Franck et al. (2016)

Experiments:
Experiment in all cases: KINOMEscan competition binding
[1] = test system: ABL1 (human), P00519 [E255K]; settings: compound 1.0 µM
[2] = biological target: ABL2 (human) (UniProt P42684); settings: compound 1.0 µM
[3] = biological target: AKT1 (human) (UniProt P31749); settings: compound 1.0 µM
[4] = biological target: AURKB (human) (UniProt Q96GD4); settings: compound 1.0 µM
[5] = biological target: BRAF (human) (UniProt P15056); settings: compound 1.0 µM
[6] = biological target: CAMK1G (human) (UniProt Q96NX5); settings: compound 1.0 µM
[7] = biological target: CAMK2D (human) (UniProt Q13557); settings: compound 1.0 µM
[8] = biological target: CDKL2 (human) (UniProt Q92772); settings: compound 1.0 µM
[9] = biological target: CLK1 (human) (UniProt P49759); settings: compound 1.0 µM
[10] = biological target: CLK2 (human) (UniProt P49760); settings: compound 1.0 µM
[11] = biological target: CSNK1G1 (human) (UniProt Q9HCP0); settings: compound 1.0 µM
[12] = biological target: CSNK2A2 (human) (UniProt P19784); settings: compound 1.0 µM
[13] = biological target: DYRK2 (human) (UniProt Q92630); settings: for kinase still bound, per cent of control: compound 1.0 µM
Chain of DYRK2 (human) (Q92630 whole entry, looked up): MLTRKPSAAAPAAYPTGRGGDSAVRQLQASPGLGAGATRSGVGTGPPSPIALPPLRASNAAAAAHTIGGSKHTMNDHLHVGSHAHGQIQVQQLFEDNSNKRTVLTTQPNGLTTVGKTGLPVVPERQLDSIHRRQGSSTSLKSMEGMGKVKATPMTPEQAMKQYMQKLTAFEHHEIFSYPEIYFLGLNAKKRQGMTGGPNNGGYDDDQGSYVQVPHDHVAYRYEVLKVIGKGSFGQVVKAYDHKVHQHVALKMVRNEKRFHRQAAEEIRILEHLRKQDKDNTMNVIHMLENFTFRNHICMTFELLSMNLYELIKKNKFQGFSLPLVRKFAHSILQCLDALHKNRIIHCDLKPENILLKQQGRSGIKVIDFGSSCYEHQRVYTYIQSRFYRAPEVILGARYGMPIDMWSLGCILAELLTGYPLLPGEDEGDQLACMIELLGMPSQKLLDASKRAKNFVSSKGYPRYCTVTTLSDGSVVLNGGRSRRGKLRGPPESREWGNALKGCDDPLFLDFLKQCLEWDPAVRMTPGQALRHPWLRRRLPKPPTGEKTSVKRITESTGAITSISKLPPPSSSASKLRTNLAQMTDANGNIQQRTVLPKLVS

[14] = test system: EGFR (human), P00533 [G719S]; settings: compound 1.0 µM
[15] = test system: EGFR (human), P00533 [P753S; 747-752 del]; settings: compound 1.0 µM
[16] = biological target: EPHA8 (human) (UniProt P29322); settings: compound 1.0 µM
[17] = biological target: EPHB4 (human) (UniProt P54760); settings: compound 1.0 µM
[18] = biological target: FLT3 (human) (UniProt P36888); settings: compound 1.0 µM
[19] = biological target: FRK (human) (UniProt P42685); settings: compound 1.0 µM
[20] = biological target: IRAK4 (human) (UniProt Q9NWZ3); settings: compound 1.0 µM
[21] = biological target: LYN (human) (UniProt P07948); settings: compound 1.0 µM
[22] = biological target: MAPK7 (human) (UniProt Q13164); settings: compound 1.0 µM
[23] = biological target: MAPK8 (human) (UniProt P45983); settings: compound 1.0 µM
Chain of MAPK8 (human) (P45983 whole entry, looked up): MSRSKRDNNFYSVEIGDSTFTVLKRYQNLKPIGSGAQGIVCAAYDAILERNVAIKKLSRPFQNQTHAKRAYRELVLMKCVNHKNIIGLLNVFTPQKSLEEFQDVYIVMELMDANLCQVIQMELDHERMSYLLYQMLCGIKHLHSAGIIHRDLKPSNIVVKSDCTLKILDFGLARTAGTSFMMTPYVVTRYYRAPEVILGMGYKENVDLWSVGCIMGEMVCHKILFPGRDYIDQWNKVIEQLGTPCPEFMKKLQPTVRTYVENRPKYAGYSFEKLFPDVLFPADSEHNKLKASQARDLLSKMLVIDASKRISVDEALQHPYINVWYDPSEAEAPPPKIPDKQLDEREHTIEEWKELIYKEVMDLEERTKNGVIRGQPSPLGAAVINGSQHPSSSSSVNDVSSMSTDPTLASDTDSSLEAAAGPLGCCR

[24] = biological target: MUSK (human) (UniProt O15146); settings: compound 1.0 µM
[25] = biological target: MYLK2 (human) (UniProt Q9H1R3); settings: compound 1.0 µM
[26] = biological target: MYLK4 (human) (UniProt Q86YV6); settings: compound 1.0 µM
[27] = biological target: NTRK2 (human) (UniProt Q16620); settings: compound 1.0 µM
[28] = biological target: OXSR1 (human) (UniProt O95747); settings: compound 1.0 µM
[29] = biological target: PAK4 (human) (UniProt O96013); settings: compound 1.0 µM
[30] = test system: PIK3CA (human), P42336 [E545A]; settings: compound 1.0 µM
Chain of PIK3CA (human), P42336 [E545A] (P42336 whole entry E545A, looked up): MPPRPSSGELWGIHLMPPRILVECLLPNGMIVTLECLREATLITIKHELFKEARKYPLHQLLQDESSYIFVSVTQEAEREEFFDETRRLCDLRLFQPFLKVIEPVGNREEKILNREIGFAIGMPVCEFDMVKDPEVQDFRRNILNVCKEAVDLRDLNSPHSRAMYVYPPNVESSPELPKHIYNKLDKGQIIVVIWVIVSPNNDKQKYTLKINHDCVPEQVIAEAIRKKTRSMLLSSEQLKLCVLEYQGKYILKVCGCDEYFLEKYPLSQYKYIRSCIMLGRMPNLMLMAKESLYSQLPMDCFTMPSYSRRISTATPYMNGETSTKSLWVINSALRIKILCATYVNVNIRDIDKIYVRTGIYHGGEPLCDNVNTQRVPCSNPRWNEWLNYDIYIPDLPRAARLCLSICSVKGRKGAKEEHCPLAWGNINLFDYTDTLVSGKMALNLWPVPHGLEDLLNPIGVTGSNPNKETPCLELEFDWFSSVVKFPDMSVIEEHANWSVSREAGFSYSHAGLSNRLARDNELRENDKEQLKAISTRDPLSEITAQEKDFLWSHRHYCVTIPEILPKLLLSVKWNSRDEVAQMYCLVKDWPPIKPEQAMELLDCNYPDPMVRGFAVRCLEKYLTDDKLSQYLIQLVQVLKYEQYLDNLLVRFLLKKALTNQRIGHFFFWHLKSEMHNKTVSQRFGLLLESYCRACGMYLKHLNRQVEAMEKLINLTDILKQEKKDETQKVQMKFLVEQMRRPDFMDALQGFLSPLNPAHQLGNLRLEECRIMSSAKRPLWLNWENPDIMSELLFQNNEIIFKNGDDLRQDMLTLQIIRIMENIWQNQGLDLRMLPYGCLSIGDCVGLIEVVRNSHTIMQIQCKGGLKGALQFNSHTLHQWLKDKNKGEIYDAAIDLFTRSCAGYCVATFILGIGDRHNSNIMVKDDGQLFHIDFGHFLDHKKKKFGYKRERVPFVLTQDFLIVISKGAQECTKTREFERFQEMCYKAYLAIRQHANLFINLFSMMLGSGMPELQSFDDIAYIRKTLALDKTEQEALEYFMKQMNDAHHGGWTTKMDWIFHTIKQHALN

[31] = biological target: PKN1 (human) (UniProt Q16512); settings: compound 1.0 µM
[32] = biological target: PKN2 (human) (UniProt Q16513); settings: compound 1.0 µM
Chain of PKN2 (human) (Q16513 whole entry, looked up): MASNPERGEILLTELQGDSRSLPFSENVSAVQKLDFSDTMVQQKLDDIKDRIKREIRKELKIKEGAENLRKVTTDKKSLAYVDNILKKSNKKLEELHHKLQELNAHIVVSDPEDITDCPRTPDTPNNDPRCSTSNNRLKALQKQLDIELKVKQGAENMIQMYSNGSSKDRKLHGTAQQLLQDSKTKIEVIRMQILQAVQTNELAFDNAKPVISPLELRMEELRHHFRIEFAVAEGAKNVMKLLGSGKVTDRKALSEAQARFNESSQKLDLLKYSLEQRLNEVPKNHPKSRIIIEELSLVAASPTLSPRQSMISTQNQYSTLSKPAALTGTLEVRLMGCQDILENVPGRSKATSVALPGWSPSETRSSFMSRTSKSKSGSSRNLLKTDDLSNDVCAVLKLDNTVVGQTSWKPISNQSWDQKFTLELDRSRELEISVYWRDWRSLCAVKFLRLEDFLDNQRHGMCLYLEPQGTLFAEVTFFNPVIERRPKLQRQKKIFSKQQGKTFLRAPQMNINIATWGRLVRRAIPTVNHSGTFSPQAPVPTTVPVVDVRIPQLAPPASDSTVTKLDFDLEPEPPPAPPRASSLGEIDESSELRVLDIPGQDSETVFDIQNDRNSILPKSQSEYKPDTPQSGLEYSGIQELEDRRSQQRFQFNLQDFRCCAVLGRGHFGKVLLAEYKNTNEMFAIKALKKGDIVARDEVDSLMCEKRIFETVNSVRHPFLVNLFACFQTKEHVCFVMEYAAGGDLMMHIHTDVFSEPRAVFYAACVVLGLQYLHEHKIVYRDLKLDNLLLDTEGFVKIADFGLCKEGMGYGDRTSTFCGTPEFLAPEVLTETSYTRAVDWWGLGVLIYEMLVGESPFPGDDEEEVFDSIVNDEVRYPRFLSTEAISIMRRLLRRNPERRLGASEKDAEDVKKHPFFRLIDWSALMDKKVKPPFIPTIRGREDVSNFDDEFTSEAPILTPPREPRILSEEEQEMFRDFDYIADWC

[33] = biological target: PRKCI (human) (UniProt P41743); settings: compound 1.0 µM
[34] = biological target: PRKX (human) (UniProt P51817); settings: compound 1.0 µM
[35] = biological target: RPS6KA1 KD1 (human) (UniProt Q15418); settings: compound 1.0 µM
[36] = biological target: STK24 (human) (UniProt Q9Y6E0); settings: compound 1.0 µM
[37] = biological target: STK32B (human) (UniProt Q9NY57); settings: compound 1.0 µM
Chain of STK32B (human) (Q9NY57 whole entry, looked up): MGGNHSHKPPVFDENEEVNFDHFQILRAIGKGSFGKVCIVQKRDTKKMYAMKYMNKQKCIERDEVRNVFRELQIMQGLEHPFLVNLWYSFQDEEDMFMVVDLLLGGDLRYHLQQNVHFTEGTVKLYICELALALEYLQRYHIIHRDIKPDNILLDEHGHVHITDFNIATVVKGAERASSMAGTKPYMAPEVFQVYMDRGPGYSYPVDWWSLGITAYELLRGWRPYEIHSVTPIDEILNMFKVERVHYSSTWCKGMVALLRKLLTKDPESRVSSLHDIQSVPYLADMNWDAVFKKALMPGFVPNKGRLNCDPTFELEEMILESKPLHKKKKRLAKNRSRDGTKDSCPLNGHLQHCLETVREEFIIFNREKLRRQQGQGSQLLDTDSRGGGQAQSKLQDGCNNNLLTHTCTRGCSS

[38] = biological target: STK35 (human) (UniProt Q8TDR2); settings: compound 1.0 µM
[39] = biological target: STK36 (human) (UniProt Q9NRP7); settings: compound 1.0 µM
[40] = biological target: TEK (human) (UniProt Q02763); settings: compound 1.0 µM
[41] = biological target: ULK3 (human) (UniProt Q6PHR2); settings: compound 1.0 µM
[42] = biological target: WEE2 (human) (UniProt P0C1S8); settings: compound 1.0 µM
[43] = biological target: YSK4 (human) (UniProt Q56UN5); settings: for kinase still bound, per cent of control: compound 1.0 µM
Chain of YSK4 (human) (Q56UN5 whole entry, looked up): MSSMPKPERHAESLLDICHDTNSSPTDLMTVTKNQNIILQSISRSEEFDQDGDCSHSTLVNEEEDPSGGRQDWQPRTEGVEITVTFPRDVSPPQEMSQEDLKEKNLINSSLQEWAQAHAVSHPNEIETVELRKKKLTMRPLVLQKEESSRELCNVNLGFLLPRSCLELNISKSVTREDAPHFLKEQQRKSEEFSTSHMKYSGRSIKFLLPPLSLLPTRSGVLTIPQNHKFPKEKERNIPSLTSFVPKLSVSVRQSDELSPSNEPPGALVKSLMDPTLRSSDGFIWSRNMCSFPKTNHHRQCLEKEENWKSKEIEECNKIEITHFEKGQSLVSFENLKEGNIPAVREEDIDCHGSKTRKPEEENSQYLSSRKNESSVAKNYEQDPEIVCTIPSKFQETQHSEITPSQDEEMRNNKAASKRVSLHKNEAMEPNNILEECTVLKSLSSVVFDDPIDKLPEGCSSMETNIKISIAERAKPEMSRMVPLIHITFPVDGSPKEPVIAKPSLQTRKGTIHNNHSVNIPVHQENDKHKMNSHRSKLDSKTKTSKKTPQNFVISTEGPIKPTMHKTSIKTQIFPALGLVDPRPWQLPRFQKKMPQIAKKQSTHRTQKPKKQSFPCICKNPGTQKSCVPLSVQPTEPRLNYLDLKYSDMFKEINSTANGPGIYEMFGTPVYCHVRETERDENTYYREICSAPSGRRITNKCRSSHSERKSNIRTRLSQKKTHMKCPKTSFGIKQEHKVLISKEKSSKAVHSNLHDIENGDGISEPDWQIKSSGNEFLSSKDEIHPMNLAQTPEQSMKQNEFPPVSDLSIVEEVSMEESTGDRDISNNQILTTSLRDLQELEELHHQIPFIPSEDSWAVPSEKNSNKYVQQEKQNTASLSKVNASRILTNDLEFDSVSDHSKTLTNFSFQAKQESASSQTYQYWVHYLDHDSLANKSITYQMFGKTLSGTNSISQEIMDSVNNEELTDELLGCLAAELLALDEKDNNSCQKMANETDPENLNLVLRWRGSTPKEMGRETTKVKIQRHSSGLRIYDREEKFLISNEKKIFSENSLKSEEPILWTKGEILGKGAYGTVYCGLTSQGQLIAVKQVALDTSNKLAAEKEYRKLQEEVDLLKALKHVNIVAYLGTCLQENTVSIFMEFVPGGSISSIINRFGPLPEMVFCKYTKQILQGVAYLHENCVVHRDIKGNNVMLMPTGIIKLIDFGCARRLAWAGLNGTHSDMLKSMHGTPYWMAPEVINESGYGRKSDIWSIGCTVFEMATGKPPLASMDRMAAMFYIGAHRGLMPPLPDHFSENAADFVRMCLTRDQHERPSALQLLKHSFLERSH

SMILES: CN(C)C/C=C/C(=O)Nc1cccc(C(=O)Nc2ccc(Nc3nccc(-c4cccnc4)n3)cc2)c1
- kinase still bound, per cent of control [1]: 43%
- kinase still bound, per cent of control [2]: 79%
- kinase still bound, per cent of control [3]: 87%
- kinase still bound, per cent of control [4]: 63%
- kinase still bound, per cent of control [5]: 95%
- kinase still bound, per cent of control [6]: 78%
- kinase still bound, per cent of control [7]: 100%
- kinase still bound, per cent of control [8]: 21%
- kinase still bound, per cent of control [9]: 12%
- kinase still bound, per cent of control [10]: 18%
- kinase still bound, per cent of control [11]: 69%
- kinase still bound, per cent of control [12]: 13%
- Kd [13]: 120 nM
- kinase still bound, per cent of control [13]: 3.2%
- kinase still bound, per cent of control [14]: 78%
- kinase still bound, per cent of control [15]: 99%
- kinase still bound, per cent of control [16]: 90%
- kinase still bound, per cent of control [17]: 100%
- kinase still bound, per cent of control [18]: 64%
- kinase still bound, per cent of control [19]: 90%
- kinase still bound, per cent of control [20]: 100%
- kinase still bound, per cent of control [21]: 86%
- kinase still bound, per cent of control [22]: 100%
- kinase still bound, per cent of control [23]: 0%
- kinase still bound, per cent of control [24]: 94%
- kinase still bound, per cent of control [25]: 35%
- kinase still bound, per cent of control [26]: 34%
- kinase still bound, per cent of control [27]: 94%
- kinase still bound, per cent of control [28]: 96%
- kinase still bound, per cent of control [29]: 79%
- kinase still bound, per cent of control [30]: 95%
- kinase still bound, per cent of control [31]: 100%
- kinase still bound, per cent of control [32]: 33%
- kinase still bound, per cent of control [33]: 100%
- kinase still bound, per cent of control [34]: 96%
- kinase still bound, per cent of control [35]: 100%
- kinase still bound, per cent of control [36]: 86%
- kinase still bound, per cent of control [37]: 100%
- kinase still bound, per cent of control [38]: 67%
- kinase still bound, per cent of control [39]: 30%
- kinase still bound, per cent of control [40]: 98%
- kinase still bound, per cent of control [41]: 7%
- kinase still bound, per cent of control [42]: 100%
- Kd [43]: 4.8 nM
- kinase still bound, per cent of control [43]: 0.1%

SMILES: CN(C)C/C=C/C(=O)Nc1cccc(C(=O)Nc2ccc(Nc3nccc(-c4c(-c5ccccc5)nn5ccccc45)n3)cc2)c1
- kinase still bound, per cent of control [1]: 12%
- kinase still bound, per cent of control [2]: 21%
- kinase still bound, per cent of control [3]: 100%
- kinase still bound, per cent of control [4]: 85%
- kinase still bound, per cent of control [5]: 43%
- kinase still bound, per cent of control [6]: 94%
- kinase still bound, per cent of control [7]: 100%
- kinase still bound, per cent of control [8]: 74%
- kinase still bound, per cent of control [9]: 95%
- kinase still bound, per cent of control [10]: 90%
- kinase still bound, per cent of control [11]: 39%
- kinase still bound, per cent of control [12]: 100%
- kinase still bound, per cent of control [13]: 100%
- kinase still bound, per cent of control [14]: 1.8%
- kinase still bound, per cent of control [15]: 7%
- kinase still bound, per cent of control [16]: 39%
- kinase still bound, per cent of control [17]: 43%
- kinase still bound, per cent of control [18]: 1%
- kinase still bound, per cent of control [19]: 32%
- kinase still bound, per cent of control [20]: 84%
- kinase still bound, per cent of control [21]: 58%
- kinase still bound, per cent of control [22]: 100%
- kinase still bound, per cent of control [23]: 0%
- kinase still bound, per cent of control [24]: 100%
- kinase still bound, per cent of control [25]: 100%
- kinase still bound, per cent of control [26]: 100%
- kinase still bound, per cent of control [27]: 14%
- kinase still bound, per cent of control [28]: 100%
- kinase still bound, per cent of control [29]: 91%
- kinase still bound, per cent of control [30]: 100%
- kinase still bound, per cent of control [31]: 100%
- kinase still bound, per cent of control [32]: 100%
- kinase still bound, per cent of control [33]: 46%
- kinase still bound, per cent of control [34]: 94%
- kinase still bound, per cent of control [35]: 100%
- kinase still bound, per cent of control [36]: 88%
- kinase still bound, per cent of control [37]: 30%
- kinase still bound, per cent of control [38]: 94%
- kinase still bound, per cent of control [39]: 2.2%
- kinase still bound, per cent of control [40]: 67%
- kinase still bound, per cent of control [41]: 84%
- kinase still bound, per cent of control [42]: 100%
- kinase still bound, per cent of control [43]: 62%
